Results on 5 compounds are retold here after patent publication US20240287138A1, “CYCLIC PEPTIDES FOR INHIBITING TNF RECEPTOR 1 ACTIVITY” (Merck Sharp & Dohme LLC, priority 2023, published 2024).

Assay [1] deals with T1, human soluble TNFR1 (sTNFR1) (Homo sapiens, UniProt P19438).
T1 construct: made in house; host or cells: Sf21 (baculovirus)
T1 sequence (P19438 with tags, fused parts or gaps): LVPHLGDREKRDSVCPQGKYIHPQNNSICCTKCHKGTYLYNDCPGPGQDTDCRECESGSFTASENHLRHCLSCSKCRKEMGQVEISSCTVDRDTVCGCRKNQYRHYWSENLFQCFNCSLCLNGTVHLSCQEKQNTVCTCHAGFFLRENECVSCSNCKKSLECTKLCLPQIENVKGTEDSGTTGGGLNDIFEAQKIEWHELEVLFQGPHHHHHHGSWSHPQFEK
Kind of assay: Human sTNFR1-peptide displacement assay (LanthaScreen Eu TR-FRET binding assay). The essentials: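 Readout is the 665/615 nm TR-FRET ratio (Eu anti-His donor, streptavidin-Alexa647 acceptor), normalized to DMSO and saturating displacer, fit by Morrison-based five-parameter logistic for Kd^app. His-tagged sTNFR1 (1-211) prebound to 100 nM biotinylated peptide SEQ ID NO.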

The next assay concerns the target T2, human TNFR2 ECD protein (Homo sapiens, UniProt P20333).
T2 construct: HRV 3C protease cleavage site (C); 6His (C, cleaved yes); made in house; host or cells: Sf21 insect cells (baculovirus), secreted
T2 sequence (P20333 23-257): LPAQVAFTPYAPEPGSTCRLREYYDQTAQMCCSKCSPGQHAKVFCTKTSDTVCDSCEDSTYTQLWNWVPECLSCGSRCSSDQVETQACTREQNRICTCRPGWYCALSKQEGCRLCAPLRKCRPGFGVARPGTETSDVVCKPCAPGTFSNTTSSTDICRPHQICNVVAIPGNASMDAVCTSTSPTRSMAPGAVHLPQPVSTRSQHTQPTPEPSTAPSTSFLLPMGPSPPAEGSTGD
Kind of assay: SPR off-target binding (selectivity) to human TNFR2 ECD. The essentials:
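Read-out: kon, koff and derived affinity from SPR response units. Human TNFR1 and TNFR2 ECD, Avi-tag biotinylated with BirA, captured on a streptavidin surface; peptides injected under laminar flow in HEPES-saline with EDTA, P20 and 2% DMSO.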

Numbered stars: 1 amine (or outer) side, 2 acyl side, 3 side chain; on linkers, the order of the positions; unused ones are H or OH. Bridge positions count the residues as written; N and C are the ends. Square brackets hold non-standard residues; d marks the D form. Peptide text beside a SMILES is read from it. Trp(βS-Me,7-OMe) = COc1cccc2c([C@H](C)[C@H](N)C(=O)O)c[nH]c12; Ala(1-bicyclo(1.1.1)pentyl) = N[C@@H](CC12CC(C1)C2)C(=O)O; Trp(4-Cl) = N[C@@H](Cc1c[nH]c2cccc(Cl)c12)C(=O)O; Trp(7-Cl) = N[C@@H](Cc1c[nH]c2c(Cl)cccc12)C(=O)O; Phe(4-CONH2) = NC(=O)c1ccc(C[C@H](N)C(=O)O)cc1; Phe(4-COOH) = N[C@@H](Cc1ccc(C(=O)O)cc1)C(=O)O; Trp(7-aza) = N[C@@H](Cc1c[nH]c2ncccc12)C(=O)O; αMeW = C[C@](N)(Cc1c[nH]c2ccccc12)C(=O)O; X1 = O=C([C@@H]1CC[C@H](N[*:1])C1)[*:2]; 2Nal = N[C@@H](Cc1ccc2ccccc2c1)C(=O)O; Pip(4-aza) = O=C(O)[C@@H]1CNCCN1; hPhe = N[C@@H](CCc1ccccc1)C(=O)O; 3Pal = N[C@@H](Cc1cccnc1)C(=O)O; 4Pal = N[C@@H](Cc1ccncc1)C(=O)O; NMeE = CN[C@@H](CCC(=O)O)C(=O)O; Dap(Me) = CNC[C@H](N)C(=O)O; NEtAla = CCN[C@@H](C)C(=O)O; αMeS = C[C@](N)(CO)C(=O)O; Nle = CCCC[C@H](N)C(=O)O; Dap = NC[C@H](N)C(=O)O; Sar = CNCC(=O)O

One may read the IC50 as the concentration that gives 50% inhibition. A higher IC50 goes with weaker potency. What is called Kd is a measure of binding affinity in units of concentration. In assay [1], `CCN1C(=O)[C@H](Cc2c[nH]c3c(Cl)cccc23)NC(=O)[C@H](CO)NC(=O)[C@H](Cc2ccncc2)NC(=O)[C@H](CC23CC(C2)C3)NC(=O)CSC[C@@H](C(N)=O)NC(=O)[C@H](Cc2c[nH]c3ncccc23)NC(=O)CN(C)C(=O)[C@H](Cc2ccc(O)cc2)NC(=O)[C@H](Cc2ccc(C(=O)O)cc2)NC(=O)[C@](C)(CO)NC(=O)[C@H](Cc2c[nH]c3ncccc23)NC(=O)[C@H](Cc2ccc(C(=O)O)cc2)NC(=O)[C@H](CC(N)=O)NC(=O)[C@@H]1C` [SEQ ID NO. 232] ({CH2CO}-[Ala(1-bicyclo(1.1.1)pentyl)][4Pal]S[Trp(7-Cl)][NEtAla]N[Phe(4-COOH)][Trp(7-aza)][αMeS][Phe(4-COOH)]Y[Sar][Trp(7-aza)]C-NH2; thioether N-14) returned a concentration for half-maximal inhibition (IC50) of 3.19 nM and a Kd of 2.15 nM. The Kd on human TNFR2 ECD protein was more than 1000 nM.
Turning to `CN1CC(=O)N[C@@H](Cc2c[nH]c3ccccc23)C(=O)N[C@H](C(N)=O)CSCC(=O)N[C@@H](CCc2ccccc2)C(=O)N[C@@H](Cc2ccncc2)C(=O)N[C@@H](CN)C(=O)N[C@@H](Cc2c[nH]c3ccccc23)C(=O)N2CCC[C@@H]2C(=O)N[C@@H](CC(N)=O)C(=O)N[C@@H](Cc2ccncc2)C(=O)N[C@@H](Cc2ccc3ccccc3c2)C(=O)N[C@@](C)(CO)C(=O)N[C@@H](Cc2ccc(C(=O)O)cc2)C(=O)N[C@@H](Cc2cccnc2)C1=O` [SEQ ID NO. 233] ({CH2CO}-[hPhe][4Pal][Dap]W[dP]N[4Pal][2Nal][αMeS][Phe(4-COOH)][3Pal][Sar]WC-NH2; thioether N-14), in assay [1], the IC50 stood at 2.65 nM. The Kd at human TNFR2 ECD protein was more than 1000 nM.
The like results for `CCCC[C@@H]1NC(=O)CSC[C@@H](C(N)=O)NC(=O)[C@](C)(Cc2c[nH]c3ccccc23)NC(=O)CN(C)C(=O)[C@H](Cc2ccc(O)cc2)NC(=O)[C@H](Cc2ccc(C(=O)O)cc2)NC(=O)[C@](C)(CO)NC(=O)[C@H](Cc2c[nH]c3c(Cl)cccc23)NC(=O)[C@H](Cc2ccncc2)NC(=O)[C@H](CC(N)=O)NC(=O)[C@H](CCC(=O)O)N(C)C(=O)[C@H](Cc2c[nH]c3ncccc23)NC(=O)[C@H](CNC)NC(=O)[C@H](Cc2ccncc2)NC1=O` [SEQ ID NO. 235] ({CH2CO}-[Nle][4Pal][Dap(Me)][Trp(7-aza)][NMeE]N[4Pal][Trp(7-Cl)][αMeS][Phe(4-COOH)]Y[Sar][αMeW]C-NH2; thioether N-14) were, in that order, 1.92 nM and more than 1000 nM.
In assay [1], `CN1CC(=O)N[C@@H](Cc2c[nH]c3cccc(Cl)c23)C(=O)N[C@H](C(N)=O)CSCC(=O)N[C@@H](CCC(N)=O)C(=O)N[C@@H](Cc2ccncc2)C(=O)N[C@@H](CO)C(=O)N[C@@H](Cc2c[nH]c3ncccc23)C(=O)N(C)[C@@H](CCC(=O)O)C(=O)N[C@@H](CC(N)=O)C(=O)N[C@@H](Cc2ccncc2)C(=O)N[C@@H](Cc2c[nH]c3c(Cl)cccc23)C(=O)N[C@@](C)(CO)C(=O)N[C@@H](Cc2ccc(C(=O)O)cc2)C(=O)N[C@@H](Cc2ccc(O)cc2)C1=O` [SEQ ID NO. 239] ({CH2CO}-Q[4Pal]S[Trp(7-aza)][NMeE]N[4Pal][Trp(7-Cl)][αMeS][Phe(4-COOH)]Y[Sar][Trp(4-Cl)]C-NH2; thioether N-14) came in with an IC50 of 0.52 nM and a Kd of 0.61 nM. Further, on human TNFR2 ECD protein, the Kd was more than 1000 nM.
Turning to `CCCC[C@@H]1NC(=O)[C@@H]2CC[C@@H](C2)NC(=O)[C@H]([C@@H](C)c2c[nH]c3c(OC)cccc23)NC(=O)CN(C)C(=O)[C@H](Cc2ccc(OC)cc2)NC(=O)[C@H](Cc2ccc(C(=O)O)cc2)NC(=O)[C@](C)(CO)NC(=O)[C@H](Cc2c[nH]c3c(Cl)cccc23)NC(=O)[C@H](Cc2ccc(C(N)=O)cc2)NC(=O)[C@H](CCC(N)=O)NC(=O)[C@H](CCC(=O)O)N(C)C(=O)[C@H](Cc2c[nH]c3ccccc23)NC(=O)[C@@H]2CNCCN2C(=O)[C@H](Cc2ccncc2)NC1=O` [SEQ ID NO. 240] (cyclo([4Pal][Pip(4-aza)]W[NMeE]Q[Phe(4-CONH2)][Trp(7-Cl)][αMeS][Phe(4-COOH)]Y(Me)[Sar][Trp(βS-Me,7-OMe)][X1][Nle])), the Kd in assay [1] is 0.23 nM; on human TNFR2 ECD protein, more than 1000 nM.
